From ChEMBL document CHEMBL2074033, “In vivo imaging of hepatobiliary transport function mediated by multidrug resistance associated protein and P-glycoprotein” (Cancer Chemother Pharmacol, 2004)

Molecular target: ATP-dependent translocase ABCB1 (Homo sapiens, UniProt P08183)
Assay: TP_TRANSPORTER: cell accumulation in GLP4/P-gp cells
Type: functional, cell-based

ATP-dependent translocase ABCB1, sequence (P08183 whole entry): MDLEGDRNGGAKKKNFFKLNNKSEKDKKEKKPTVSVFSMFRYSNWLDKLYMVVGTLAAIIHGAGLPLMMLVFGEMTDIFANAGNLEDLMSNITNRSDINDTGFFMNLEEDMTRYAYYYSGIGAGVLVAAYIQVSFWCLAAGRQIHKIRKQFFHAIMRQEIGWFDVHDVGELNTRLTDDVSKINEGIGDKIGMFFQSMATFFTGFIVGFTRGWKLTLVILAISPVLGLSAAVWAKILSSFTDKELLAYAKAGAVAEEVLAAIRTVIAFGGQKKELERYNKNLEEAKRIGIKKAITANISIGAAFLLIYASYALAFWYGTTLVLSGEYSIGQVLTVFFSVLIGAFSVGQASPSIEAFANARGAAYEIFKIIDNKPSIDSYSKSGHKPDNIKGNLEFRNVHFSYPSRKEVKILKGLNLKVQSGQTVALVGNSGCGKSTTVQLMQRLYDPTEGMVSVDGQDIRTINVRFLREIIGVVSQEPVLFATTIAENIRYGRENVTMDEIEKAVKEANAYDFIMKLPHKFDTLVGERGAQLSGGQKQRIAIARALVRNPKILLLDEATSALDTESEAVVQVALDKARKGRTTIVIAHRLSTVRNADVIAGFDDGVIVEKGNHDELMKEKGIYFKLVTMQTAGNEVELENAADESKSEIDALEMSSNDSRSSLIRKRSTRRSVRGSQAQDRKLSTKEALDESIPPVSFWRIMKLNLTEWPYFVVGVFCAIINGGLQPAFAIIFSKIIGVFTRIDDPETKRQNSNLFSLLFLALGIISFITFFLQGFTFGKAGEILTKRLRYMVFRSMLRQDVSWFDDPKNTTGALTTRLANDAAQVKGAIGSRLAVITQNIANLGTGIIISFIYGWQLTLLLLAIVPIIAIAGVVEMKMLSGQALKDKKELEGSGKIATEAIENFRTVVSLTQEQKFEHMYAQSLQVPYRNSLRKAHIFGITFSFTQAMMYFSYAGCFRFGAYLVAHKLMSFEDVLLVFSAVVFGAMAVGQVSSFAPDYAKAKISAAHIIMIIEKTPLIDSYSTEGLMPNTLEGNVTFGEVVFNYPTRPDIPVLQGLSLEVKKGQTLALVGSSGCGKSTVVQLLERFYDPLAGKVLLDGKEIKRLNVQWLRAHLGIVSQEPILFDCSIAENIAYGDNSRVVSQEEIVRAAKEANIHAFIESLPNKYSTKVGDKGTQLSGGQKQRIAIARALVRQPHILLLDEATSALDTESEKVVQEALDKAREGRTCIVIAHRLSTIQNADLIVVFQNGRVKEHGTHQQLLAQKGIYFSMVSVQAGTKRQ

TECHNETIUM TC 99M DISOFENIN
Activity: is not a substrate [-]
